From article PMC11257039, “VCP activator reverses nuclear proteostasis defects and enhances TDP-43 aggregate clearance in multisystem proteinopathy models” (The Journal of Clinical Investigation, 2024)
“And” between values parts separate entries of the source, which are not always exact repeats. Equal values may be shown once. “Also recorded” adds a separate entry of the source.

Assays:
[1] = test system: WT HeLa cells expressing GFP-TDP-4FL; assay: Flow cytometry of GFP-TDP-4FL integrated fluorescence, WT HeLa; type: cell-based; conditions: for Integrated Fluorescence WT (Normalized to CHX): replicate values
Method: Drug treatments were performed on neurons 7 days after lentiviral transduction and 14 days after neuronal induction. HeLa cells were collected using trypsin and pelleted at 1000g for 3 minutes. Cell pellets were resuspended in colorless DMEM (Invitrogen) supplemented with 2% FBS and filtered through a BD tube with cell strainer (BD Biosciences) for flow cytometry analysis on LSR II (BD Biosciences). Data analysis was performed on FlowJo v10 software. Integrated fluorescence intensity was determined by multiplying percent positive GFP and GFP median fluorescence values.

R155H VCP = target: T1, R155H VCP (Mus musculus, UniProt Q01853, R155H); assay: MESG-PNP ATPase assay, recombinant R155H VCP; type: biochemical; conditions: VCP Mutation R155H; replicate values
T1 construct: in the full-length recombinant VCP; His (N); made in house; host or cells: Escherichia coli BL21-CodonPlus (DE3)-RIL
Method: (§1) All other experiments were performed using the EnzCheck phosphatase assay kit (Molecular Probes). ATPase activity was measured in a 96-well flat bottom plate (Thermo Fisher Scientific). 50 nM VCP was incubated in 100 μL ATPase buffer with 2% DMSO with 25 μM compound and various ATP concentrations. The absorbance at 360 ± 5 nm was measured for more than 15 minutes at 25°C. Phosphate release was quantified based on a phosphate standard curve performed on the same plate. Initial enzyme velocity was determined by fitting the linear portion of the data to a linear regression model.
(§2) Figure S8. VCP activators variable effect on ATPase activity of MSP associated mutations in recombinant VCP. ATPase activity of 50 nM recombinant VCP protein was measured using an MESG-PNP assay upon treatment with 25 μM compound versus 2% DMSO control at 1mM ATP for WT (also shown in Fig. 5c), A232E, R155H, and R159H (n=3 with 3 technical replicated per experiment; points are expressed as beta ± SE, linear effects model: *P<0.05,**P<0.01; ***P<0.001; ****P<0.0001).

A232E VCP = target: T2, A232E VCP (Mus musculus, UniProt Q01853, A232E); assay: MESG-PNP ATPase assay, recombinant A232E VCP; type: biochemical; conditions: VCP Mutation A232E; replicate values
T2 construct: in the full-length recombinant VCP; His (N); made in house; host or cells: Escherichia coli BL21-CodonPlus (DE3)-RIL
Method: as §1, §2

recombinant WT VCP [2] = target: T3, recombinant WT VCP (Mus musculus, UniProt Q01853); assay: MESG-PNP (EnzCheck) phosphate release ATPase assay, WT VCP; type: biochemical; conditions: for ATPase activity v0/ET: 25 μM compound, replicate experiments
T3 construct: in the full-length recombinant VCP; His (N); made in house; host or cells: Escherichia coli BL21-CodonPlus (DE3)-RIL
Method: as §1
(§3) Experiments with varied compound concentration were fit to a 3-parameter dose curve with asymmetric profile likelihood 95% confidence intervals in GraphPad Prism 9 (GraphPad). Experiments with varied ATP concentration were fit to a Michaelis-Menten model with asymmetric profile likelihood 95% confidence intervals. Significance was determined for experiments with fixed compound or fixed ATP concentration using a linear mixed-effects model.

R159H VCP = target: T4, R159H VCP (Mus musculus, UniProt Q01853, R159H); assay: MESG-PNP ATPase assay, recombinant R159H VCP; type: biochemical; conditions: VCP Mutation R159H; replicate values
T4 construct: in the full-length recombinant VCP; His (N); made in house; host or cells: Escherichia coli BL21-CodonPlus (DE3)-RIL
Method: as §1, §2

recombinant WT VCP [3] = target: T3, recombinant WT VCP; assay: Kinase-Glo ATPase assay, recombinant WT VCP; type: biochemical; conditions: for ATP consumed: WT VCP no UN
Method: (§4) Experiments with varied activator concentration and screening were measured using the Kinase-Glo Luminescent Kinase Assay (Promega). Reactions were incubated at 25°C for 1 hour then reduced to 4°C in a thermocycler consisting of 50 nM of recombinant VCP with or without 50 nM UFD1/NPLOC4 in 50 uL ATPase buffer (25 mM HEPES, pH 7.5, 100 mM NaCl, 10 mM MgCl2) at 2% DMSO with 62.5 μM ATP and a range of activator concentrations (Gibco, Sigma-Aldrich). Equal volumes of reaction and Kinase-Glo reagent were incubated for 20 minutes at room temperature in a 96 well white flat bottom plate (Corning). Luminescence was measured in a microplate reader (Spark 20M, Tecan).
as §3

26S proteasome = 26S proteasome activity, Suc-LLVY-AMC fluorescence; type: biochemical, human; conditions: 25 μM compound, versus 1% DMSO
Method: 26S proteasome and substrate suc-LLVY-AMC were purchased (LifeSensors, Inc.). Fluorescence was measured in a microplate reader using a 96-well optical bottom black plate (Thermo Fisher Scientific). […] 26S proteasome was incubated in 100 μL proteasome buffer (20 mM HEPES, pH 7.5, 0.5 mM EDTA, 0.05% Triton-X) with 100 μM suc-LLVY-AMC, 1 mM ATP, and 25 μM compound or 1% DMSO. Fluorescence was measured at excitation 380 ± 10nm and emission 460 ± 10nm for more than 15 minutes at 37°C. Initial velocity was determined by fitting the linear portion of the data to a linear regression model. Significance was determined for using a linear mixed-effects model.

WT VCP + Ufd1/Nploc4 = target: T5, WT VCP + Ufd1/Nploc4 (Mus musculus, UniProt Q01853); assay: Kinase-Glo ATPase assay, WT VCP with UFD1/NPLOC4 (UN); type: biochemical; conditions: for ATP consumed: WT VCP with UN
T5 construct: in the full-length recombinant VCP; His (N); made in house; host or cells: E. coli (VCP: BL21-CodonPlus (DE3)-RIL; UFD1 and NPLOC4: E. coli (DE3), purified by the MD Anderson core)
Method: as §4, §3

luciferase = assay: Luciferase counter assay: Kinase-Glo with 62.5 μM ATP without recombinant VCP; type: biochemical; conditions: for measured ATP consumed (nmol) without VCP: replicate values
Method: as §4
(A-D) Measured ATP as determined by a Kinase-Glo assay of 62.5μM ATP in the presence of increasing concentrations of compound without recombinant VCP present. (for all panels: n=3 with 4 technical replicates per experiment, points are expressed as beta ± SE, linear mixed effects model, P>0.05 for each […]
(1 picture or pasted object on this page, not shown here)

T3 sequence (Q01853 whole entry): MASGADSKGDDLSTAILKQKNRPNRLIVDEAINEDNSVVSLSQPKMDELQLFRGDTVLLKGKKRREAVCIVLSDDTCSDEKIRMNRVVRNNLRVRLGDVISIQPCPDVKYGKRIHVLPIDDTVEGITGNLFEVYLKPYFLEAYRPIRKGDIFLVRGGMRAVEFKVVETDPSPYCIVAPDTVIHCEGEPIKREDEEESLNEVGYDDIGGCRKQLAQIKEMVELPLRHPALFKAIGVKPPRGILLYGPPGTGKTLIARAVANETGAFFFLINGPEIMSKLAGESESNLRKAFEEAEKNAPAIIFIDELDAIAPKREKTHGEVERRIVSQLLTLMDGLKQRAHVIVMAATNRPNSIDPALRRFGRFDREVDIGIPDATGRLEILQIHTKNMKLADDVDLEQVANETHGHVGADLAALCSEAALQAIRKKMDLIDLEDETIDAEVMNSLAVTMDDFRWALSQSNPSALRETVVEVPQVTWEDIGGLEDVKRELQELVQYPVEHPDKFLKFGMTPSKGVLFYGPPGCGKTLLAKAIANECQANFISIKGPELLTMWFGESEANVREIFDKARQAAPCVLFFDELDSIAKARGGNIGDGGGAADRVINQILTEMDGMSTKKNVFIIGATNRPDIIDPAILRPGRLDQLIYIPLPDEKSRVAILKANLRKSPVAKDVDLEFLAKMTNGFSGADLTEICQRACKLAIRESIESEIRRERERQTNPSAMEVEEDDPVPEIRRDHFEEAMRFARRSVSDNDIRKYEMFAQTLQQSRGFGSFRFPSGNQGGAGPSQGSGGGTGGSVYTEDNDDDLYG
T5 sequence (Q01853 whole entry): as above
T5 sequence (Q92890 whole entry partner): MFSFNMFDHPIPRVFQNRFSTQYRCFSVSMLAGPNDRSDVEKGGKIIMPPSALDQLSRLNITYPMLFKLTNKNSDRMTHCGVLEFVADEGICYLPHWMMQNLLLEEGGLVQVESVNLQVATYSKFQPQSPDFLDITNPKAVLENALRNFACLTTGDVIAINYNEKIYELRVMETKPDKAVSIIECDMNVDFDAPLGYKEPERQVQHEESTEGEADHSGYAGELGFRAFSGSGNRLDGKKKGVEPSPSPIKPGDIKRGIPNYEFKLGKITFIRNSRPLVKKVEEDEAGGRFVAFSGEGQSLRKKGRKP
T5 sequence (Q8TAT6 whole entry partner): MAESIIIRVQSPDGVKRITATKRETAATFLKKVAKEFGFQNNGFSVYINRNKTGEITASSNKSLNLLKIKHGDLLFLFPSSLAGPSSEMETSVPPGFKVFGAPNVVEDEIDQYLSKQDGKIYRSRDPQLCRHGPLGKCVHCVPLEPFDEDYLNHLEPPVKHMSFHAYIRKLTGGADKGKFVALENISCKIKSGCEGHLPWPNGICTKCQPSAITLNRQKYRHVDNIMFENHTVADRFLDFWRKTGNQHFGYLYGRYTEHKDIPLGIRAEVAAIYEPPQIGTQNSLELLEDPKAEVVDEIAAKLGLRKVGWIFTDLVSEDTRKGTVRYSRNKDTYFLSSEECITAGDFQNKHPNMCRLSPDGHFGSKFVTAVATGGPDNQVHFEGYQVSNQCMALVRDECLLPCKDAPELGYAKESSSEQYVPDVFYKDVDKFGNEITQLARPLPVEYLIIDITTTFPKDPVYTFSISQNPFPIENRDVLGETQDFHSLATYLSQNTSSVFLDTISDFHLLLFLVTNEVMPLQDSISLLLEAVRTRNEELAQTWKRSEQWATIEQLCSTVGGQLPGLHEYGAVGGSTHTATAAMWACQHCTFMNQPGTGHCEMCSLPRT
T4 sequence (Q01853 whole entry R159H): as the sequence (Q01853 whole entry) above, with R159H counted along it
T2 sequence (Q01853 whole entry A232E): as the sequence (Q01853 whole entry) above, with A232E counted along it
T1 sequence (Q01853 whole entry R155H): as the sequence (Q01853 whole entry) above, with R155H counted along it

SMILES: O=C(OCCN(C1=NS(=O)(=O)c2ccccc21)c1ccc(Cl)cc1)c1ccco1 [UP163]
- Integrated Fluorescence WT (Normalized to CHX) ([1]; 5μM compound with CHX): 1.026 and 0.947 and 1.013 and 0.859 and 0.810
- Integrated Fluorescence WT (Normalized to CHX) ([1]; 20μM compound with CHX): 0.921 and 1.001 and 0.939 and 1.006 and 0.777 and 0.710
- clearance of GFP-TDP-4FL aggregates (integrated fluorescence) ([1]; MG132, then CHX with 5 or 20 μM activator): enhances clearance of TDP-4FL inclusions; also recorded: slightly enhanced clearance
- ATPase activity, nmol Pi / nmol VCP / s (R155H VCP): 0.759 nmol Pi / nmol VCP / s and 0.647 nmol Pi / nmol VCP / s and 0.706 nmol Pi / nmol VCP / s
- ATPase activity, nmol Pi / nmol VCP / s (A232E VCP): 0.830 nmol Pi / nmol VCP / s and 0.637 nmol Pi / nmol VCP / s and 0.764 nmol Pi / nmol VCP / s
- kcat (nmol Pi / nmol VCP / s) (95% CI) (recombinant WT VCP [2]; 25 μM activator): 0.366 (0.335, 0.401) nmol Pi / nmol VCP / s
- increase in kcat (recombinant WT VCP [2]; 25 μM activator, versus DMSO): more than 50%
- ATPase activity v0/ET (recombinant WT VCP [2]; [ATP] 62.5 μM): 0.201 nmol Pi / nmol VCP / s and 0.212 nmol Pi / nmol VCP / s and 0.198 nmol Pi / nmol VCP / s
- ATPase activity v0/ET (recombinant WT VCP [2]; [ATP] 125 μM): 0.260 nmol Pi / nmol VCP / s and 0.250 nmol Pi / nmol VCP / s and 0.255 nmol Pi / nmol VCP / s
- ATPase activity v0/ET (recombinant WT VCP [2]; [ATP] 250 μM): 0.300 nmol Pi / nmol VCP / s and 0.288 nmol Pi / nmol VCP / s and 0.278 nmol Pi / nmol VCP / s
- ATPase activity v0/ET (recombinant WT VCP [2]; [ATP] 500 μM): 0.335 nmol Pi / nmol VCP / s and 0.312 nmol Pi / nmol VCP / s and 0.331 nmol Pi / nmol VCP / s
- ATPase activity v0/ET (recombinant WT VCP [2]; [ATP] 1000 μM): 0.366 nmol Pi / nmol VCP / s and 0.351 nmol Pi / nmol VCP / s and 0.360 nmol Pi / nmol VCP / s
- ATPase activity, nmol Pi / nmol VCP / s (R159H VCP): 0.812 nmol Pi / nmol VCP / s and 0.873 nmol Pi / nmol VCP / s and 0.726 nmol Pi / nmol VCP / s
- EC50 (recombinant WT VCP [3]; EC50 (μM) (95% CI), WT VCP without UN, 50 nM VCP, 62.5 μM ATP, 2% DMSO): 9 µM
- ATP consumed (recombinant WT VCP [3]; 1.56 μM compound): 0.996 nmol and 1.192 nmol and 1.605 nmol
- ATP consumed (recombinant WT VCP [3]; 3.13 μM compound): 0.935 nmol and 1.312 nmol and 1.332 nmol
- ATP consumed (recombinant WT VCP [3]; 6.25 μM compound): 1.040 nmol and 1.494 nmol and 1.616 nmol
- ATP consumed (recombinant WT VCP [3]; 12.5 μM compound): 1.105 nmol and 1.570 nmol and 1.588 nmol
- ATP consumed (recombinant WT VCP [3]; 25 μM compound): 1.206 nmol and 1.717 nmol and 1.792 nmol
- ATP consumed (recombinant WT VCP [3]; 50 μM compound): 1.416 nmol and 2.232 nmol and 2.160 nmol
- ATP consumed (recombinant WT VCP [3]; 100 μM compound): 1.546 nmol and 2.072 nmol and 2.521 nmol
- ATP consumed (recombinant WT VCP [3]; 200 μM compound): 1.557 nmol and 2.138 nmol and 2.227 nmol
- recombinant WT VCP ATPase activity (recombinant WT VCP [3]; in vitro validation of 106 screen hits): significantly increased
- increase of VCP activity (recombinant WT VCP [3]; maximum, WT VCP without UN): 104%
- % activity of 26S proteasome (26S proteasome): 101.6% and 88.7% and 86.5% and 112.7% and 93.3% and 91.5%
- change in EC50 with UN compared to without UN (WT VCP + Ufd1/Nploc4): no change in EC50
- change in maximum percent activity with UN compared to without UN (WT VCP + Ufd1/Nploc4): significantly decreased
- EC50 (WT VCP + Ufd1/Nploc4; WT VCP + Ufd1/Nploc4, 1:1 molar ratio): 8.9 µM
- ATP consumed (WT VCP + Ufd1/Nploc4; 1.56 μM compound): 1.198 nmol and 1.183 nmol and 1.402 nmol
- ATP consumed (WT VCP + Ufd1/Nploc4; 3.13 μM compound): 1.366 nmol and 1.295 nmol and 1.519 nmol
- ATP consumed (WT VCP + Ufd1/Nploc4; 6.25 μM compound): 1.504 nmol and 1.416 nmol and 1.656 nmol
- ATP consumed (WT VCP + Ufd1/Nploc4; 12.5 μM compound): 1.666 nmol and 1.564 nmol and 1.799 nmol
- ATP consumed (WT VCP + Ufd1/Nploc4; 25 μM compound): 1.783 nmol and 1.641 nmol and 1.890 nmol
- ATP consumed (WT VCP + Ufd1/Nploc4; 50 μM compound): 1.844 nmol and 1.710 nmol and 1.941 nmol
- ATP consumed (WT VCP + Ufd1/Nploc4; 100 μM compound): 1.839 nmol and 1.775 nmol and 1.995 nmol
- ATP consumed (WT VCP + Ufd1/Nploc4; 200 μM compound): 1.798 nmol and 1.691 nmol and 2.001 nmol
- luciferase activity (measured ATP without VCP) (luciferase; 62.5 μM ATP, increasing concentrations of compound): did not inhibit luciferase activity
- measured ATP consumed (nmol) without VCP (luciferase; compound 6.25 μM): 3.139 nmol and 3.185 nmol and 3.132 nmol and 3.341 nmol and 3.220 nmol and 3.273 nmol and 3.147 nmol and 3.064 nmol and 3.275 nmol and 3.208 nmol and 3.040 nmol and 3.045 nmol
- measured ATP consumed (nmol) without VCP (luciferase; compound 12.5 μM): 3.118 nmol and 3.105 nmol and 3.142 nmol and 3.139 nmol and 3.279 nmol and 3.429 nmol and 3.221 nmol and 3.237 nmol and 3.278 nmol and 3.379 nmol and 3.331 nmol and 3.029 nmol
- measured ATP consumed (nmol) without VCP (luciferase; compound 25 μM): 3.141 nmol and 3.208 nmol and 3.280 nmol and 3.310 nmol and 3.135 nmol and 3.015 nmol and 3.257 nmol and 3.266 nmol and 3.329 nmol and 3.083 nmol and 3.153 nmol
- measured ATP consumed (nmol) without VCP (luciferase; compound 50 μM): 3.191 nmol and 3.073 nmol and 3.250 nmol and 3.386 nmol and 3.272 nmol and 3.113 nmol and 3.202 nmol and 3.171 nmol and 3.209 nmol and 3.373 nmol and 3.530 nmol and 3.028 nmol
- measured ATP consumed (nmol) without VCP (luciferase; compound 100 μM): 3.232 nmol and 3.235 nmol and 3.017 nmol and 3.209 nmol and 3.245 nmol and 3.024 nmol and 3.264 nmol and 3.329 nmol and 3.427 nmol and 3.000 nmol and 3.076 nmol
- measured ATP consumed (nmol) without VCP (luciferase; compound 200 μM): 3.190 nmol (2×) and 3.291 nmol and 3.314 nmol and 3.330 nmol and 3.165 nmol and 3.125 nmol and 3.456 nmol and 3.010 nmol and 3.038 nmol and 3.261 nmol and 3.272 nmol
